According to EP0237929B1, “3,5-Disubstituted pyrocatechol derivatives” (F. HOFFMANN-LA ROCHE AG, priority 1986, dated 1987):
pIC50: −log10 of the molar value.

Key:
[1] = molecular target: T1, Catechol-O-Methyl-Transferase (COMT) (Rattus norvegicus, UniProt P22734); test: COMT inhibition in rat liver homogenates; assay type: biochemical, Ratten
T1 construct: Man inkubiert Rattenleber-Homogenate in Gegenwart eines geeigneten Substrates; from tissue; host or cells: rat liver homogenate
T1 sequence (P22734 1-264): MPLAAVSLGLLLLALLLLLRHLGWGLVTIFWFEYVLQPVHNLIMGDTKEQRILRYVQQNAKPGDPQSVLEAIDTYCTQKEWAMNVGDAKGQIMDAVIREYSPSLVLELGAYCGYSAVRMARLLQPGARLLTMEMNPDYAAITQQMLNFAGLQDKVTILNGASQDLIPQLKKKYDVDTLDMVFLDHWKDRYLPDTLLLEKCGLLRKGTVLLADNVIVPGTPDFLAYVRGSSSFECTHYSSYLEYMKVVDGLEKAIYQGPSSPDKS
Excerpt: Diese Wirkung kann wie folgt quantitativ erfasst werden: Man inkubiert Rattenleber-Homogenate in Gegenwart eines geeigneten Substrates wie in J. Neurochem. […] In einer zweiten Versuchsreihe wird die Inkubation in Gegenwart einer Verbindung der Formel Ia durchgeführt. Aus der Differenz der ermittelten COMT-Aktivitäten lässt sich dann die IC₅₀ berechnen. Die IC₅₀ wird in nMol/l angegeben und ist diejenige Konzentration in der Inkubationsmischung, welche notwendig ist, um die COMT-Aktivität um 50% herabzusetzen.

[2] = Acute toxicity after a single oral administration to mice; conditions: mouse, in vivo, p.o., read-out: DL₅₀

| Compound | pIC50 [1] | LD50 [2] |
| --- | --- | --- |
| O=C(c1cccnc1)c1cc(O)c(O)c([N+](=O)[O-])c1 [3,4-Dihydroxy-5-nitrophenyl-3-pyridylketon] | 7.33 | 1000 to 2000 mg/kg |
| CCCCOC(=O)C=Cc1cc(O)c(O)c([N+](=O)[O-])c1 [3,4-Dihydroxy-5-nitrozimtsäure-n-butylester] | 7.59 | 2500 to 5000 mg/kg |
| O=C(c1cc(O)c(O)c([N+](=O)[O-])c1)c1ccccn1 [3,4-Dihydroxy-5-nitrophenyl-2-pyridylketon] | 7.27 | 1250 to 2500 mg/kg |
| O=[N+]([O-])c1cc(O)c(O)c([N+](=O)[O-])c1 [3,5-Dinitropyrocatechol] |  | 500 to 1000 mg/kg |
| O=C(c1cc(O)c(O)c([N+](=O)[O-])c1)c1ccccc1F [2'-Fluor-3,4-dihydroxy-5-nitrobenzophenon] | 7.38 | 312 to 625 mg/kg |
| CCCCOC(=O)c1cc(O)c(O)c([N+](=O)[O-])c1 [3,4-Dihydroxy-5-nitrobenzoesäure-n-butylester] | 7.70 | 312 to 625 mg/kg |
| CCOC(=O)C(=O)c1cc(O)c(O)c([N+](=O)[O-])c1 [3,4-Dihydroxy-5-nitrophenylglyoxylsäureäthylester] | 7.32 | 1250 to 2500 mg/kg |
| O=C(c1ccccc1)c1cc(O)c(O)c([N+](=O)[O-])c1 [3,4-Dihydroxy-5-nitrobenzophenon] | 7.32 | 500 to 1000 mg/kg |
| O=C(c1ccncc1)c1cc(O)c(O)c([N+](=O)[O-])c1 [3,4-Dihydroxy-5-nitrophenyl-4-pyridylketon] | 7.17 | 1000 to 2000 mg/kg |
